Measured values published in ChEMBL document CHEMBL1131843, “Synthesis and biological evaluation of novel 1beta-methylcarbapenems having a new moiety at C-2” (Bioorg Med Chem Lett, 1999).
Converted amounts (≈) assume the structure as drawn.

Key:
Enterococcus faecium = assay: In vitro antibacterial activity against Streptococcus faecium MD 8b; format: functional
Pseudomonas aeruginosa [1] = assay: In vitro antibacterial activity against Pseudomonas aeruginosa 1771M; format: functional
Streptococcus pyogenes = assay: In vitro antibacterial activity against Streptococcus pyogenes 77A; format: functional
Enterobacter cloacae = assay: In vitro antibacterial activity against Enterobacter cloacae 1321E; format: functional
Klebsiella aerogenes = assay: In vitro antibacterial activity against Klebsiella aerogenes 1522E; format: functional
Pseudomonas aeruginosa [2] = assay: In vitro antibacterial activity against Pseudomonas aeruginosa 1592E; format: functional
Escherichia coli [3] = assay: In vitro antibacterial activity against Escherichia coli 078; format: functional
Salmonella typhimurium = assay: In vitro antibacterial activity against Salmonella Typhimurium; format: functional, Salmonella enterica subsp. enterica serovar Typhimurium
Escherichia coli [4] = assay: In vitro antibacterial activity against Escherichia coli 1507E; format: functional
Staphylococcus aureus = assay: In vitro antibacterial activity against Staphylococcus aureus SG 511; format: functional
[5] = target: T1, Dipeptidase 1 (Sus scrofa) (UniProt P22412); assay: Relative hydrolysis to meropenem by partially purified porcine renal Dehydropeptidase-1 was reported.; design: scale not given: the % may be the effect or the level left
T1 sequence (whole entry): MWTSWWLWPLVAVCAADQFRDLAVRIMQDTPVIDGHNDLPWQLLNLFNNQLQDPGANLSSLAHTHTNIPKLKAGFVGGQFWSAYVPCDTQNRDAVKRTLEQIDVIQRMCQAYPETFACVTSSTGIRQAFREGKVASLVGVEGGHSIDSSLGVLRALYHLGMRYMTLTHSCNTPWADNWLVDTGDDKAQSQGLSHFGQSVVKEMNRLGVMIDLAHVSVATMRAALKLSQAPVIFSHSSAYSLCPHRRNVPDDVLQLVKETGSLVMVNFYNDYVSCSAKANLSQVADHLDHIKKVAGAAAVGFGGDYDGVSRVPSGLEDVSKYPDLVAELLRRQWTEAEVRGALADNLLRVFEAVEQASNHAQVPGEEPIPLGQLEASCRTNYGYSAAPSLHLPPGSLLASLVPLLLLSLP

Mus musculus [6] = assay: In vivo therapeutic efficacy was determined against Pseudomonas aeruginosa 1771M by a single sc administration in mice; format: functional; settings: read-out: PD50
[7] = Area under curve (AUC) was determined in mice at a single subcutaneous administration of 40 mg/kg (n=4); format: ADME, organism-based; design: dose 40 mg/kg, route subcutaneous; settings: mouse, in vivo, sc
Mus musculus [8] = assay: In vivo therapeutic efficacy was determined against Streptococcus pyogenes 77A by a single sc administration in mice; format: functional; settings: read-out: PD50
Mus musculus [9] = assay: In vivo therapeutic efficacy was determined against Escherichia coli 078 by a single sc administration in mice; format: functional; settings: read-out: PD50
Mus musculus [10] = assay: In vivo therapeutic efficacy was determined against Staphylococcus aureus Y-80-1953 by a single sc administration in mice; format: functional; settings: read-out: PD50
[11] = Maximum time was determined in mice at a single subcutaneous administration of 40 mg/kg (n=4); format: ADME, organism-based; design: dose 40 mg/kg, route subcutaneous; settings: mouse, in vivo, sc
[12] = Maximum plasma concentration was determined in mice at a single subcutaneous administration of 40 mg/kg (n=4); format: ADME, organism-based; design: dose 40 mg/kg, route subcutaneous; settings: mouse, sc
[13] = Half life was determined in mice at a single subcutaneous administration of 40 mg/kg (n=4); format: ADME, organism-based; design: dose 40 mg/kg, route subcutaneous; settings: mouse, in vivo, sc
[14] = Enterococcus faecium, read-out: MIC
[15] = Pseudomonas aeruginosa, read-out: MIC
[16] = Streptococcus pyogenes, read-out: MIC
[17] = Enterobacter cloacae, read-out: MIC
[18] = Klebsiella aerogenes, read-out: MIC
[19] = Escherichia coli, read-out: MIC
[20] = Salmonella enterica, read-out: MIC
[21] = Staphylococcus aureus, read-out: MIC

MIC (Enterococcus faecium; [14]) [µg/mL] | MIC (Pseudomonas aeruginosa [1]; [15]) [µg/mL] | MIC (Streptococcus pyogenes; [16]) [µg/mL] | MIC (Enterobacter cloacae; [17]) [µg/mL] | MIC (Klebsiella aerogenes; [18]) [µg/mL] | MIC (Pseudomonas aeruginosa [2]; [15]) [µg/mL] | MIC (Escherichia coli [3]; [19]) [µg/mL] | MIC (Salmonella typhimurium; [20]) [µg/mL] | MIC (Escherichia coli [4]) [µg/mL] | MIC (Staphylococcus aureus; [21]) [µg/mL] | Structure (SMILES) | Stability [5] [%] | further results
12.5 (≈ 28.3 µM) | 0.391 (≈ 0.886 µM) | 0.013 (≈ 0.0294 µM) | 0.195 (≈ 0.442 µM) | 0.195 (≈ 0.442 µM) | 100 (≈ 226 µM) | 0.098 (≈ 0.222 µM) | 0.391 (≈ 0.886 µM) | 0.195 (≈ 0.442 µM) | 0.195 (≈ 0.442 µM) | C[C@@H](O)[C@H]1C(=O)N2C(C(=O)O)=C(S[C@H]3CN[C@H](C(=O)N4C[C@@H](O)[C@H](O)C4)C3)[C@H](C)[C@H]12 | – | –
6.25 (≈ 11.8 µM) | 0.391 (≈ 0.741 µM) | 0.025 (≈ 0.0474 µM) | 0.025 (≈ 0.0474 µM) | 0.049 (≈ 0.0929 µM) | 0.781 (≈ 1.48 µM) | 0.025 (≈ 0.0474 µM) | 0.049 (≈ 0.0929 µM) | 0.025 (≈ 0.0474 µM) | 0.195 (≈ 0.37 µM) | C[C@@H](O)[C@H]1C(=O)N2C(C(=O)O)=C(S[C@@H]3CN[C@H](C(=O)N4C[C@H](OC(N)=O)[C@@H](OC(N)=O)C4)C3)[C@H](C)[C@H]12 | 53 | –
6.25 (≈ 11.9 µM) | 0.098 (≈ 0.186 µM) | 0.007 (≈ 0.0133 µM) | 0.013 (≈ 0.0247 µM) | 0.049 (≈ 0.0932 µM) | 0.098 (≈ 0.186 µM) | 0.013 (≈ 0.0247 µM) | 0.049 (≈ 0.0932 µM) | 0.025 (≈ 0.0476 µM) | 0.195 (≈ 0.371 µM) | CC(=O)O[C@@H]1CN(C(=O)[C@@H]2C[C@H](SC3=C(C(=O)O)N4C(=O)[C@H]([C@@H](C)O)[C@H]4[C@H]3C)CN2)C[C@H]1OC(C)=O | 50 | –
25 (≈ 56.6 µM) | 0.781 (≈ 1.77 µM) | 0.025 (≈ 0.0566 µM) | 0.195 (≈ 0.442 µM) | 0.195 (≈ 0.442 µM) | 100 (≈ 226 µM) | 0.098 (≈ 0.222 µM) | 0.195 (≈ 0.442 µM) | 0.098 (≈ 0.222 µM) | 0.195 (≈ 0.442 µM) | C[C@@H](O)[C@H]1C(=O)N2C(C(=O)O)=C(S[C@H]3CN[C@H](C(=O)N4C[C@H](O)[C@@H](O)C4)C3)[C@H](C)[C@H]12 | – | –
– | – | – | – | – | – | – | – | – | – | CC(=O)O[C@H]1CN(C(=O)[C@@H]2C[C@H](SC3=C(C(=O)O)N4C(=O)[C@H]([C@@H](C)O)[C@H]4[C@H]3C)CN2)C[C@@H]1OC(C)=O (stereo in doubt; 1a) [listing 2 of 2 here] | 63 | –
– | – | – | – | – | – | – | – | – | – | CC(=O)O[C@H]1CN(C(=O)[C@@H]2C[C@H](SC3=C(C(=O)O)N4C(=O)[C@H]([C@@H](C)O)[C@H]4[C@H]3C)CN2)C[C@@H]1OC(C)=O (stereo in doubt; 1f) [listing 1 of 2 here] | – | MIC (Enterococcus faecium): 6.25 µg/mL (≈ 11.9 µM); MIC (Pseudomonas aeruginosa [1]): 0.195 µg/mL (≈ 0.371 µM); MIC (Streptococcus pyogenes): 0.007 µg/mL (≈ 0.0133 µM); MIC (Enterobacter cloacae): 0.013 µg/mL (≈ 0.0247 µM); MIC (Klebsiella aerogenes): 0.049 µg/mL (≈ 0.0932 µM); MIC (Pseudomonas aeruginosa [2]): 1.563 µg/mL (≈ 2.97 µM); MIC (Escherichia coli [3]): 0.025 µg/mL (≈ 0.0476 µM); MIC (Salmonella typhimurium): 0.049 µg/mL (≈ 0.0932 µM); MIC (Staphylococcus aureus): 0.195 µg/mL (≈ 0.371 µM)
– | – | – | – | – | – | – | – | – | – | CC(=O)O[C@H]1CN(C(=O)[C@@H]2C[C@H](SC3=C(C(=O)O)N4C(=O)[C@H]([C@@H](C)O)[C@H]4[C@H]3C)CN2)C[C@@H]1OC(C)=O (stereo in doubt; 1f) [listing 2 of 2 here] | 66 | –

Structure (SMILES) | MIC (Enterococcus faecium; [14]) [µg/mL] | MIC (Pseudomonas aeruginosa [1]; [15]) [µg/mL] | MIC (Streptococcus pyogenes; [16]) [µg/mL] | MIC (Enterobacter cloacae; [17]) [µg/mL] | MIC (Klebsiella aerogenes; [18]) [µg/mL] | MIC (Pseudomonas aeruginosa [2]; [15]) [µg/mL] | MIC (Escherichia coli [3]; [19]) [µg/mL] | MIC (Salmonella typhimurium; [20]) [µg/mL] | MIC (Escherichia coli [4]) [µg/mL] | MIC (Staphylococcus aureus; [21]) [µg/mL] | Stability [5] [%] | further results
CC(=O)O[C@H]1CN(C(=O)[C@@H]2C[C@H](SC3=C(C(=O)O)N4C(=O)[C@H]([C@@H](C)O)[C@H]4[C@H]3C)CN2)C[C@@H]1OC(C)=O (stereo in doubt; 1a) [listing 1 of 2 here] | 6.25 (≈ 11.9 µM) | 0.098 (≈ 0.186 µM) | 0.007 (≈ 0.0133 µM) | 0.013 (≈ 0.0247 µM) | 0.049 (≈ 0.0932 µM) | – | 0.013 (≈ 0.0247 µM) | 0.049 (≈ 0.0932 µM) | 0.025 (≈ 0.0476 µM) | 0.098 (≈ 0.186 µM) | – | ED50 (Mus musculus [6]): 3.93 mg/kg; AUC [7]: 6830 ng·h/mL; ED50 (Mus musculus [8]): 4.79 mg/kg; ED50 (Mus musculus [9]): 0.94 mg/kg; ED50 (Mus musculus [10]): 2.18 mg/kg; Tmax [11]: 10.2 min; MIC (Pseudomonas aeruginosa [2]): 0.195 µg/mL (≈ 0.371 µM); Cmax [12]: 16600 ng/mL; half-life [13]: 15 min
C[C@@H](O)[C@H]1C(=O)N2C(C(=O)O)=C(SCCNC=N)C[C@H]12 [IMIPENEM ANHYDROUS] | 1.56 (≈ 5.22 µM) | 0.195 (≈ 0.651 µM) | 0.004 (≈ 0.0134 µM) | 0.195 (≈ 0.651 µM) | 0.391 (≈ 1.31 µM) | 0.781 (≈ 2.61 µM) | 0.098 (≈ 0.327 µM) | 0.781 (≈ 2.61 µM) | 0.195 (≈ 0.651 µM) | 0.013 (≈ 0.0434 µM) | 19 | –
C[C@@H](O)[C@H]1C(=O)N2C(C(=O)O)=C(S[C@@H]3CN[C@H](C(=O)N(C)C)C3)[C@H](C)[C@H]12 [MEROPENEM] | 12.5 (≈ 32.6 µM) | 0.049 (≈ 0.128 µM) | 0.002 (≈ 0.00522 µM) | 0.025 (≈ 0.0652 µM) | 0.049 (≈ 0.128 µM) | 0.195 (≈ 0.509 µM) | 0.013 (≈ 0.0339 µM) | 0.025 (≈ 0.0652 µM) | 0.025 (≈ 0.0652 µM) | 0.098 (≈ 0.256 µM) | 100 | ED50 (Mus musculus [6]): 4.26 mg/kg; AUC [7]: 6860 ng·h/mL; ED50 (Mus musculus [8]): 4.55 mg/kg; ED50 (Mus musculus [9]): 0.65 mg/kg; ED50 (Mus musculus [10]): 11.1 mg/kg; Tmax [11]: 10.2 min; Cmax [12]: 15600 ng/mL; half-life [13]: 16.2 min
